Experimental findings from patent publication US8030487B2, “2-amino—5-substituted pyrimidine inhibitors” (TargeGen, Inc., priority 2006, dated 2011) are described below.

pEC50, pIC50: −log10 of the molar value.

In assay [1] the test system is retinal edema induced by retinal ischemia. Put plainly: Retinal edema (Method #1), induced by retinal ischemia. Conditions: LE rats, 1% solution, topical bid × 5, retinal vein thrombosis; vehicle 5.2. In kind it is in vivo, rat. The procedure:
Retinal Edema (Method #1) Retinal edema was induced in rats by retinal ischemia. LE rats were injected i.v. with the photosensitizing dye Rose Bengal, followed by laser stimulation of a single retinal vein (in the right eye only) so as to induce thrombosis and thus retinal ischemia. Animals were dosed topically with either test compound or vehicle (10 μL eyedrops twice per day bilaterally) for a total of 5 dosings. Retinal edema was then measured by injecting animals i.p. with sodium fluorescein followed 45 later by ocular fluorophotometry to detect fluorescein leakage into the retina and vitreous chamber. An Edema Index (EI) was calculated according to the following formula: EI=(Fod−Fos)/Fos, where Fod=AUC value for fluorescence in the right eye, and Fos=AUC value for fluorescence in the left (treated but not thrombosed) eye.

In assay [2] the test system is retinal edema induced by intravitreal injection of VEGF. Put plainly: Retinal edema (Method #2), induced by intravitreal VEGF. It is filed as in vivo, rat. The note with it: LE rats, 1% solution topical, vehicle 0.363. On the procedure: Retinal Edema (Method #2) Retinal edema was induced in rats by intravitreal injection of vascular endothelial growth factor (VEGF). LE rats were dosed topically (bilaterally) with either test compound or vehicle (10 μL eyedrops), followed by intravitreal injections of either saline (left eye) or VEGF (right eye). Five hours later, animals were again dosed topically with test compound or vehicle, and then injected i.p. with sodium fluorescein followed 45 later by ocular fluorophotometry to detect fluorescein leakage into the retina and vitreous chamber. EI was calculated according to the following formula: EI=(Fod−Fos)/Fos, where Fod=AUC value for fluorescence in the right eye, and Fos=AUC value for fluorescence in the left (saline injected) eye.

Assay [3] relates to retinal neovascularization. Put plainly: Retinal neovascularization, normoxia-hyperoxia-normoxia mouse pups. In kind it is in vivo. The note with it: C57BL/6 mouse pups. On the procedure: Retinal Neovascularization Retinal neovascularization was induced in mouse pups by cyclic exposure to normoxia-hyperoxia-normoxia. C57BL/6 mouse pups were exposed to hyperoxia (75% O2 environment) for 5 days starting at from postnatal day 7, then returned to a normoxic environment. Dosing was also initiated at this time (bilateral topical application of test compound or vehicle as a 10 μL eyedrops twice per day). After 5 days of dosing, retinal wholemounts were prepared and stained with a fluorescently labeled lectin that specifically stains murine endothelium. Digital images were captured by fluorescence microscopy and used to quantify total vascular area.

The test system of assay [4] is choroidal neovascularization. Put plainly: Choroidal neovascularization induced by laser injury. In kind it is in vivo, mouse. The note with it: C57BL/6 mice, 1% solution topical twice per day, 14 days; vehicle 16,192. The procedure: Choroidal Neovascularization Choroidal neovasculariztion was induced in mice by laser injury. Laser photocoagulation was performed on the choroids of C57BL/6 mice, after which mice were dosed topically with test compound or vehicle for a total of 14 days (10 μL applied per eye twice per day). At the end of the 2 week dosing period, mice were perfused with fluorescein-labeled dextran (2×10^6 average molecular weight), eyes were removed and fixed in formalin, and choroidal flatmounts prepared. Laser injury sites were photographed by fluorescence microscopy and digital images were used to quantify the area of choroidal neovascularization.

The next assay concerns the target T1, human c-Src (Homo sapiens, UniProt P12931).
T1 construct: purchased Panvera/Invitrogen
Nature of the assay: Src kinase inhibition (KinaseGlo residual ATP). In kind it is biochemical. Conditions: ATP 3 μM, 90 min room temperature. The procedure:
(§1) The ability of compounds of the present invention to inhibit the activity of various groups of kinases was tested. Kinases that were tested are described below. All kinase reactions were conducted in 96-well plates with a final reaction volume of 50 μl.
(§2) Recombinant human c-Src or Yes, or Fyn, or Lck (28 ng/well, Panvera/Invitrogen, Madison Wis.), ATP (3 μM), a tyrosine kinase substrate (PTK2, 250 μM, Promega Corp., Madison Wis.), and test agents (at concentrations ranging from about 1 nM/l to about 100 μM/l), in the presence of Src kinase reaction buffer (Upstate USA, Lake Placid N.Y.). After reacting for about 90 minutes at room temperature, residual ATP was determined using a luciferase-based assay (KinaseGlo, Promega Corp.) as a measure of kinase activity. Data from four wells were then averaged and used to determine IC50 values for the test compounds (Prism software package, GraphPad Software, San Diego Calif.).
(In general: In Kinase-Glo more light means more ATP remaining.)

The next assay deals with T2, VEGFR2 (Homo sapiens, UniProt P35968).
T2 construct: purchased Cell Signaling/ProQinase
Put plainly: VEGFR2 kinase inhibition (residual ATP luminescence). It is filed as biochemical. Conditions: 1.5 uM ATP, 60 min 37° C. The procedure:
as §1
(§3) EGFR and VEGFR2 kinase assays were similarly performed. EGFR (76 ng/well, Panvera/Invitrogen) was combined with 12.5 mg/ml poly(glu4tyr) (Sigma) and 2.5 uM ATP. VEGFR2 (14.1 U/well, Cell Signaling/ProQinase) was used with 0.3 mg/ml poly(glu4tyr) and 1.5 uM ATP. Both were incubated for 60 minutes at 37° C., and the residual ATP was measured via luminescence, per the procedure described above.

A further assay has as its target T3, Yes (Homo sapiens, UniProt P07947).
T3 construct: purchased Panvera/Invitrogen
Nature of the assay: Yes kinase inhibition (KinaseGlo). In kind it is biochemical. The procedure:
as §1, §2

For another assay, the target named is T4, Lck (Homo sapiens, UniProt P06239).
T4 construct: purchased Panvera/Invitrogen
Put plainly: Lck kinase inhibition (KinaseGlo). In kind it is biochemical. The procedure: as §1, §2

A further assay deals with Abl (Homo sapiens, UniProt P00519). Put plainly: Abl kinase inhibition. It is filed as biochemical. The procedure: as §1
Src Family of Kinases, abl, and Ret
as §2

In another assay the target is T5, EGFR (Homo sapiens, UniProt P00533).
T5 construct: purchased Panvera/Invitrogen
Nature of the assay: EGFR kinase inhibition (residual ATP). In kind it is biochemical. Conditions: 2.5 uM ATP, 60 min 37° C. On the procedure:
as §1, §3

Assay [5] has as its system human retinal micro vascular endothelial cells (hRMVEC). Put plainly: Cellular data using hRMVEC. In kind it is cell-based. Conditions: Endothelial cell.

T2 sequence (P35968 20-1356, species assumed): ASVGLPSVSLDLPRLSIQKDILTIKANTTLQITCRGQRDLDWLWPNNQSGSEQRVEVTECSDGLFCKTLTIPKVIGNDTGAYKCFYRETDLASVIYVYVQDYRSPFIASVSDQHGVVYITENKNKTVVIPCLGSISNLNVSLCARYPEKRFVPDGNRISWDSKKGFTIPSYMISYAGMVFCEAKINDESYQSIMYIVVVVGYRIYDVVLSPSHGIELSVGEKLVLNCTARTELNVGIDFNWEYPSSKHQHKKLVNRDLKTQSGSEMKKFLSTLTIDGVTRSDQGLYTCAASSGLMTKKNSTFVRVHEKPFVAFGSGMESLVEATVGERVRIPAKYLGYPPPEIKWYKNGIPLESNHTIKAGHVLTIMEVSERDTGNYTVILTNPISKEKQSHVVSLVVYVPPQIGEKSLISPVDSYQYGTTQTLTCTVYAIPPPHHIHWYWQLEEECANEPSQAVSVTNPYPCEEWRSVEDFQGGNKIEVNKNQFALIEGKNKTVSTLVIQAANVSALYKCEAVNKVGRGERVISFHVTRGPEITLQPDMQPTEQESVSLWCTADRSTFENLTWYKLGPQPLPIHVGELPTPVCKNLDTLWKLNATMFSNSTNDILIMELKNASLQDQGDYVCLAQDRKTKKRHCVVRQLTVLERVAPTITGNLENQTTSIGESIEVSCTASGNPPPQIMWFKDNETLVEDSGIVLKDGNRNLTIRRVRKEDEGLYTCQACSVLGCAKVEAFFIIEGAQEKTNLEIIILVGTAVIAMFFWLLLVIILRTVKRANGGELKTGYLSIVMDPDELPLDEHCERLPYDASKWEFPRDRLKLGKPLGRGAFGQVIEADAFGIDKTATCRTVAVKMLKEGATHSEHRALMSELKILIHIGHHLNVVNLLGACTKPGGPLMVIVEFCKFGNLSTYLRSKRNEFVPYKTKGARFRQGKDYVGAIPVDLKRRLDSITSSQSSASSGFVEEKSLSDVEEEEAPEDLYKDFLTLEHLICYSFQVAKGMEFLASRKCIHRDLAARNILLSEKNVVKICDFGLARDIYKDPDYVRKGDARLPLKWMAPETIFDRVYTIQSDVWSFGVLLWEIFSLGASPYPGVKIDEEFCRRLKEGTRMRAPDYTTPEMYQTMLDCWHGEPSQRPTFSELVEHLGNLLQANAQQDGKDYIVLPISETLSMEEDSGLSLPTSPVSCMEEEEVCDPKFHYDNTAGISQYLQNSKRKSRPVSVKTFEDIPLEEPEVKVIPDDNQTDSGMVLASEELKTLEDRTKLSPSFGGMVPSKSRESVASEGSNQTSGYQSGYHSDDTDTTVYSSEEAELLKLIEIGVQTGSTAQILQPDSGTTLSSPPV
T4 sequence (P06239 whole entry): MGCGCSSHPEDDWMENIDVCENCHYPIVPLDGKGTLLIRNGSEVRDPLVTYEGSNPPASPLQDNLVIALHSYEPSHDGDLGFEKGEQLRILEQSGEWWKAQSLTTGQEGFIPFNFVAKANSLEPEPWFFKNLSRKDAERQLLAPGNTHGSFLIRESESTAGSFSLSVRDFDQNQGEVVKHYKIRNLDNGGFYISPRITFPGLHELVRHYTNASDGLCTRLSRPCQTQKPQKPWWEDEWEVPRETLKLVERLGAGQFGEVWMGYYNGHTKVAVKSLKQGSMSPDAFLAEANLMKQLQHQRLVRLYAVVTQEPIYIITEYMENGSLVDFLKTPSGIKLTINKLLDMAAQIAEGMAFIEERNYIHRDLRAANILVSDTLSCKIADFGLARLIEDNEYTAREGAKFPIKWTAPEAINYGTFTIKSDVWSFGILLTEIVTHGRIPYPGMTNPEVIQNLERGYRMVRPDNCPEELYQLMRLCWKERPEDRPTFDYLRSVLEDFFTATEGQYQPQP
T1 sequence (P12931 whole entry): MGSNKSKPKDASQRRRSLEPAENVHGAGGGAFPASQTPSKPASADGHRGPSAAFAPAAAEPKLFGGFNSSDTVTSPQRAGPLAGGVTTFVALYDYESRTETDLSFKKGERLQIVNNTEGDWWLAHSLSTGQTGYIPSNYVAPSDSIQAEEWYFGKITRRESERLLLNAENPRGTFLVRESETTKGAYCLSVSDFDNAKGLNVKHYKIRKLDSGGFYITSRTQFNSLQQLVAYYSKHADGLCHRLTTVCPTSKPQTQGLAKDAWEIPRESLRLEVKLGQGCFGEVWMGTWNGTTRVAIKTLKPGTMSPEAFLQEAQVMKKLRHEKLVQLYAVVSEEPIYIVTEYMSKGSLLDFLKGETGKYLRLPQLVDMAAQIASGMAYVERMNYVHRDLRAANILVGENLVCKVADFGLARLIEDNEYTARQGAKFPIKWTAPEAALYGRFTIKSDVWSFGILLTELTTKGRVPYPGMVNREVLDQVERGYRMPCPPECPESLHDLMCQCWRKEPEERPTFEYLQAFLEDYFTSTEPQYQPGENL
Chain of Abl (P00519 whole entry, species assumed): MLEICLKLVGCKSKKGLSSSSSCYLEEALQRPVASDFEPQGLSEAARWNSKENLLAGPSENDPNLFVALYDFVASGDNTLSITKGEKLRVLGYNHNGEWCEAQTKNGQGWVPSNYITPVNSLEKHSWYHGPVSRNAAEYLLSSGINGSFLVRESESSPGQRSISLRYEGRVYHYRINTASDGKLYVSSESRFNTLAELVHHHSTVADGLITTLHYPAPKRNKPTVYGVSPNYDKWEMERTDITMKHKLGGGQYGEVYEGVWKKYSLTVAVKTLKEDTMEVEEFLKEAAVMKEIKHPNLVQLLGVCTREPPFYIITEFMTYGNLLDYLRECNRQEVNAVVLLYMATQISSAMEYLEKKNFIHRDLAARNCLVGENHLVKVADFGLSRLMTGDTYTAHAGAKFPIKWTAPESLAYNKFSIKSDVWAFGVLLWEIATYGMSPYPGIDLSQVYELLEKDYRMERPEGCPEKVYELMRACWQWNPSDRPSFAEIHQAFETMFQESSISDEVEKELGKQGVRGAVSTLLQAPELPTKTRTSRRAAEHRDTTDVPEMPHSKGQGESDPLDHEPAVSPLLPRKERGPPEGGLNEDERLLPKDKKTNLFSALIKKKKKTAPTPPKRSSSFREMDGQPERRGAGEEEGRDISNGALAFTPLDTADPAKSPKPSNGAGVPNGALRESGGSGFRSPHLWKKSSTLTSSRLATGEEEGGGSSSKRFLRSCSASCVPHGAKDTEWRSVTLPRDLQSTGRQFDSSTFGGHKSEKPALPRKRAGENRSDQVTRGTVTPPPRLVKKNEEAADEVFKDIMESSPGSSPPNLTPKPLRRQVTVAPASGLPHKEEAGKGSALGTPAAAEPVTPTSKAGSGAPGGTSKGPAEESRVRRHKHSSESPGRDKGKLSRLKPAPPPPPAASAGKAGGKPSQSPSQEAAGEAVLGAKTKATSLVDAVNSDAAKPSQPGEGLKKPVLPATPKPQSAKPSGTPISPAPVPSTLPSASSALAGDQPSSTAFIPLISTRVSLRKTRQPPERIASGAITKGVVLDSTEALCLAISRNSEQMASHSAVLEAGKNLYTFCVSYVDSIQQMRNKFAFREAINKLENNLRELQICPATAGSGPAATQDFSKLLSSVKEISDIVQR
T3 sequence (P07947 whole entry): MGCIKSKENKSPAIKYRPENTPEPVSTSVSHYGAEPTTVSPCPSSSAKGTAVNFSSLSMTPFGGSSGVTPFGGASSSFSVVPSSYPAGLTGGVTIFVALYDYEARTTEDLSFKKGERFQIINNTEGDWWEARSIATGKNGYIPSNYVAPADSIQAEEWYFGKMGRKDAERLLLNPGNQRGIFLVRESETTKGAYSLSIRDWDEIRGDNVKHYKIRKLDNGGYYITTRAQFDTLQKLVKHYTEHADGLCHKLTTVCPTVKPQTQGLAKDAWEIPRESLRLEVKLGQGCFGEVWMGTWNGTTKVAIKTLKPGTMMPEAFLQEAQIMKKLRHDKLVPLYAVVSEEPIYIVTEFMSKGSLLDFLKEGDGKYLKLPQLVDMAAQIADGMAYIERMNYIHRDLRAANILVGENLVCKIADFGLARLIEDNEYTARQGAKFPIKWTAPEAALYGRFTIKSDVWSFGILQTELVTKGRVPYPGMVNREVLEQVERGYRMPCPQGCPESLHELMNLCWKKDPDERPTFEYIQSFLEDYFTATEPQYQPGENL

For the compound `O=C(Nc1ccc(Cl)c(C(=O)Nc2cnc(Nc3ccc(OCCN4CCCC4)cc3)nc2)c1)c1cccc(C(F)(F)F)c1` [Compound XL, 2-Chloro-N-{2-[4-(2-Pyrrolidin-1-yl-ethoxy)-Phenylamino]-Pyrimidin-5-yl}-5-(3-Trifluoromethyl-Benzoylamino)-Benzamide], in assay [1], the “Edema Index” value was 2.3. For the same compound, the EI in assay [2] is listed as 0.110. Besides, the “reduction in retinal vascularization compared to vehicle” value in assay [3] (0.1% solution, twice per day, 5 days, P=0.009) is given as 29%. In addition, the % Reduction vs. Vehicle (retinal vascularization) in assay [3] (1% of compound XL (table), topical bid × 5) worked out at 29%. In addition, the “Area (mm^2), total retinal vascular area” value in [3] (1% of compound XL (table), topical bid × 5, vehicle 8.269) came out at 6.429 mm^2. Further, in assay [4], the “Area (μm^2) of choroidal neovascularization” value is on record as 9,388 μm^2.
With `O=C(Nc1ccc(Cl)c(C(=O)Nc2cnc(Nc3ccc(OCCN4CCCC4)cc3)nc2)c1)c1cccc(C(F)(F)F)c1` [drawing 171], the values for the pIC50 against human c-Src and at VEGFR2 were 8.92 and 9.10, respectively.
Taken in the same sequence, the figures for `O=C(Nc1ccc(Cl)c(C(=O)Nc2cnc(Nc3ccccc3)nc2)c1)c1cccc(C(F)(F)F)c1` [drawing 181] were 8.35 and 8.02.
Taken in the same sequence, the figures for `Cc1ccc(Nc2nccc3ccccc23)cc1C(=O)Nc1cnc(Nc2cccc(OCCN3CCCC3)c2)nc1` [drawing 186] were 7.63 and 5.48.
`O=C(Nc1cccc(C(F)(F)F)c1)Nc1ccc(Cl)c(C(=O)Nc2cnc(Nc3ccc(OCCN4CCCC4)cc3)nc2)c1` [drawing 202]: the pIC50 (as a rule, −log10 of the IC50, conventionally taken in molar units) against human c-Src was 8.66; on VEGFR2 it was 8.15.
For the compound `O=C(Nc1ccc(Cl)c(C(=O)Nc2cnc(Nc3cccnc3)nc2)c1)c1cccc(C(F)(F)F)c1` [drawing 211], the values for the pIC50 on human c-Src and at VEGFR2 were 8.33 and 8.27, respectively.
In the case of `O=C(Nc1ccc(Cl)c(C(=O)Nc2cnc(Nc3cccc(OCCN4CCCC4)c3)nc2)c1)c1cccc(C(F)(F)F)c1` [drawing 225], the pIC50 against Yes is 9.28; at Lck, 8.77; against Abl it was 8.96.
As for `Cc1ccc(NC(=O)c2cccc(C(F)(F)F)c2)cc1C(=O)Nc1cnc(Nc2cccc(OCCN3CCCC3)c2)nc1` [drawing 226], the values for the negative-log IC50 (pIC50) at Yes and at Lck were 9.03 and 8.42, respectively.
As to `O=C(Nc1cnc(Nc2cccc(OCCN3CCCC3)c2)nc1)c1cc(NC(=O)C(F)(F)F)ccc1Cl` [drawing 227], the pIC50 against Abl was 6.81.
Consider `O=C(Nc1ccc(Cl)c(C(=O)Nc2cnc(Nc3ccc(S(=O)(=O)C4CCNCC4)cc3)nc2)c1)c1cccc(C(F)(F)F)c1` [drawing 228], for which the results for the negative logarithm of the IC50 (pIC50) at Yes, against Lck and on Abl were 9.05, 8.35 and 9.70, respectively.
The matching figures for `Cc1ccc(NC(=O)c2cccc(C(F)(F)F)c2)cc1C(=O)Nc1cnc(Nc2ccc(OCCN3CCCC3)cc2)nc1` [drawing 229]: 8.89, 8.29 and 8.26.
`O=C(Nc1ccc(Cl)c(C(=O)Nc2cnc(Nc3ccc(OCCN4CCCC4)cc3)nc2)c1)c1cccc(C(F)(F)F)c1` [drawing 230]: the pIC50 against Yes is 9.34; at Lck, 8.66; against Abl, 8.74; against EGFR, 7.01.
In the case of `O=C(Nc1ccc(Cl)c(C(=O)Nc2cnc(Nc3ccc(CCCN4CCCC4)cc3)nc2)c1)c1cccc(C(F)(F)F)c1` [drawing 231], the pIC50 on Abl was 8.42.
The same measure, in the same setting: next, `Cc1ccc(NC(=O)C(F)(F)F)cc1C(=O)Nc1cnc(Nc2cccc(OCCN3CCCC3)c2)nc1` [drawing 232]: 6.90.
As to `O=C(Nc1ccc(Cl)c(C(=O)Nc2cnc(Nc3ccc(CCCN4CCCC4)cc3)nc2)c1)c1cccc(C(F)(F)F)c1` [drawing 233], the pIC50 against EGFR was 6.91.
As to `O=C(Nc1ccc(Cl)c(C(=O)Nc2cnc(Nc3ccccc3)nc2)c1)c1cccc(C(F)(F)F)c1` [drawing 234], the pIC50 was 8.38 at Yes and 7.49 on Lck.
Regarding `Cc1ccc(Nc2nccc3ccccc23)cc1C(=O)Nc1cnc(Nc2cccc(OCCN3CCCC3)c2)nc1` [drawing 236], the pIC50 was 7.65 against Yes and 6.51 at Lck.
For the compound `O=C(Nc1cccc(C(F)(F)F)c1)Nc1ccc(Cl)c(C(=O)Nc2cnc(Nc3ccc(OCCN4CCCC4)cc3)nc2)c1` [drawing 237], the pIC50 against Yes was 8.60; against Lck, 7.65; on EGFR, 6.25.
As to `O=C(Nc1ccc(Cl)c(C(=O)Nc2cnc(Nc3cccc(OCCN4CCCC4)c3)nc2)c1)c1cccc(C(F)(F)F)c1` [drawing 238], the pEC50 (as a rule, −log10 of the EC50, conventionally taken in molar units) in assay [5] was 7.16.
The same measure, in the same setting: next, `O=C(Nc1ccc(Cl)c(C(=O)Nc2cnc(Nc3ccc(S(=O)(=O)C4CCNCC4)cc3)nc2)c1)c1cccc(C(F)(F)F)c1` [drawing 239]: 5.94; `Cc1ccc(NC(=O)c2cccc(C(F)(F)F)c2)cc1C(=O)Nc1cnc(Nc2ccc(OCCN3CCCC3)cc2)nc1` [drawing 240]: 6.70.
Same read-out and setting: next, `O=C(Nc1ccc(Cl)c(C(=O)Nc2cnc(Nc3ccc(OCCN4CCCC4)cc3)nc2)c1)c1cccc(C(F)(F)F)c1` [drawing 241]: 7.52; `O=C(Nc1ccc(Cl)c(C(=O)Nc2cnc(Nc3ccc(CCCN4CCCC4)cc3)nc2)c1)c1cccc(C(F)(F)F)c1` [drawing 242]: 7.39; `O=C(Nc1ccc(Cl)c(C(=O)Nc2cnc(Nc3cccnc3)nc2)c1)c1cccc(C(F)(F)F)c1` [drawing 243]: 7.17.
